Laboratory results from patent publication US20230123334A1, “AMINO LIPID COMPOUND, PREPARATION METHOD THEREFOR, AND APPLICATION THEREOF” (SHENZHEN SHENXIN BIOTECHNOLOGY CO., LTD., priority 2020, published 2023).

Columns and labels:
[1] = system: HEK293 cells; assay: Preliminary screening as DNA vectors, GFP transfection of HEK293 cells; assay type: cell-based; settings: HEK293 cells; lipid/DOPE liposome with 75 ng plasmid DNA (psin-EGFP-IRES-Puro); number of cells expressing GFP divided by total number of nuclei (Hoechst)
How it was run: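 Lipid + DOPE liposomes (NaOAc, pH 5.6) complexed w/ 75 ng psin-EGFP-IRES-Puro, 30 min RT; added to 3-5×10^4 HEK293/well, 37° C. Hoechst 0.2 μg/mL at 20-24 h, imaged after further 20-24 h. Efficiency = GFP+ cells / total nuclei.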

[2] = system: HEK293 cells; assay: Preliminary screening as mRNA vectors, EGFP mRNA transfection of HEK293 cells; assay type: cell-based; settings: HEK293 cells, 96-well plates, EGFP mRNA 50 ng per well; percentage of GFP fluorescent cells relative to total number of cells (Hoechst)
How it was run: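 Each well of HEK293 cells received 50 ng of EGFP mRNA. Efficiency was expressed as percent GFP-expressing cells over Hoechst-defined total cell number.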

Compound	Absolute DNA transfection efficiency in HEK293 cells [1] [%]	Absolute mRNA transfection efficiency in HEK293 cells [2] [%]
CCCCCCCCCCCCCCCCSc1nc(NCCN2CCCCC2)nc(SCCCCCCCCCCCCCCC)n1 [Compound S15S16D4]	2.0	3.2
CCCCCCCCCCCCCCCNc1nc(NCCCCCCCC)nc(NCCCN2CCOCC2)n1 [Compound N8N15D8]	1.1	0.3
CCCCCCCCCCCCN(CCCCCCCCCCCC)c1nc(NCCN2CCOCC2)nc(N(CCCCCCCCCCCC)CCCCCCCCCCCC)n1 [2N12^2N12D2]	0.0	1.9
CCCCCCNc1nc(NCCCCCC)nc(NCCN(C)C)n1 [Compound N6N6D1]	0.0	0.0
CCCCCCCCCCCCCCCCCCSc1nc(NCCN2CCOCC2)nc(SCCCCCCCCCCCC)n1 [Compound S12S18D2]	0.0	0.0
CCCCCCCCCCCCCNc1nc(NCCCCCCCCCCC)nc(NCCN(C)C)n1 [Compound N11N13D1]	1.4	5.9
CCCCCCCCCCCCCNc1nc(NCCCCCC)nc(NCCCN(C)C)n1 [Compound N6N13D6]	0.1	0.1
CCCCCCCCCCCCCCCCCCSc1nc(NCCCN(C)C)nc(SCCCCCCCCCCCCCCCCCC)n1 [Compound S18S18D6]	0.2	0.5
CCCCCCCCCCCCCCCCCCNc1nc(NCCCCCCCCCCCCCCCCCC)nc(NCCCN(C)C)n1 [Compound N18N18D6]	0.3	4.4
CCCCCCCCCCCCCCCCCCNc1nc(NCCCCCCCCCCCCCCCCCC)nc(NCCN2CCOCC2)n1 [Compound N18N18D2]	0.0	0.0
CCCCCCCCCCCCCCCCCCNc1nc(NCCCCCCC)nc(NCCN(CC)CC)n1 [Compound N7N18D7]	0.0	0.0
CCCCCCCCCCCNc1nc(NCCCCCCCCCCC)nc(NCCN2CCCC2)n1 [Compound N11N11D3]	1.8	1.4
CCCCCCCCCCCSc1nc(NCCN2CCOCC2)nc(SCCCCCCCCCC)n1 [Compound S10S11D2]	2.2	0.6
CCCCCCCCCCCSc1nc(NCCN(CC)CC)nc(SCCCCCCCCC)n1 [Compound S9S11D7]	8.1	2.5
CCCCCCCCCCCCCCCCCCNc1nc(NCCCCCCCCCCCCC)nc(NCC2CCN(C)CC2)n1 [Compound N13N18D10]	0.5	6.1
CCCCCCCCCCCCCCCNc1nc(NCCCCCCCCCCCCCCC)nc(NCCN(CC)CC)n1 [Compound N15N15D7]	0.5	0.0
CCCCCCCCCNc1nc(NCCCCCCC)nc(NCCN(C)C)n1 [Compound N7N9D1]	0.6	0.0
CCCCCCCCCCCCCCCCCCNc1nc(NCCCCCCCCCCCCCCCC)nc(NCCN2CCN(C)CC2)n1 [Compound N16N18D5]	1.1	0.0
CCCCCCCCCCCCCCCCNc1nc(NCCCCCC)nc(NCCN(C)C)n1 [Compound N6N16D1]	0.4	0.0
CCCCCCCCCCCCCCCCCCSc1nc(NCCN2CCCC2)nc(SCCCCCCCCCC)n1 [Compound S10S18D3]	11.1	21.5
CCCCCCCCCCCNc1nc(NCCCCCCCC)nc(NCCN(CC)CC)n1 [Compound N8N11D7]	0.0	0.0
CCCCCCCCCCCCCCCCNc1nc(NCCCCCCCCCCCCCCCC)nc(NCCN2CCCC2)n1 [Compound N16N16D3]	1.4	2.8
CCCCCCCCCCCCCCCCNc1nc(NCCCCCCCCCCCCCCC)nc(NCCN2CCN(C)CC2)n1 [Compound N15N16D5]	0.7	0.0
